Series [1] concerns the target T1, soluble HLA-DR1 (DRA1*0101, DRB1*0101) (Homo sapiens, UniProt P01903+P01911, A100R/D57E/F55L/F60I/F76Y/I96L/L162R/M171V/P40L/Q125E/R42F/V115G/Y59C).
T1 construct: shortened α- and […]-chains without the cytoplasmatic and transmembrane portion of the MHC molecule; made in house; host or cells: S2 insect cells
Put plainly: Loading of empty soluble HLA-DR1 with biotinylated HA306-318 peptide, sandwich ELISA. It is filed as biochemical. As to the method:
In order to monitor catalysis of the loading of HLA-DR molecules by compounds of formulae I, IA, II, III and IV1 to IV3, empty, soluble DR molecules were incubated with biotinylated, high-affinity peptide, and these were then detected in a sandwich ELISA for the MHC complexes.
All the batches were then adjusted to a final volume of 10 μl with 2% BSA-PO4^3− buffer (in the case of HLA-DR1 only with PO4^3− buffer). The reaction was started by incubation at 37° C. in a thermocycler. After 40 minutes, the incubation was terminated and the loading reaction was stopped by storage on ice and addition of 50 μl of ice-cold 1% BSA-PBS.
The detection of bound peptide was carried out by means of a sandwich ELISA. […] Between these steps, the plate was washed twice with PBS-0.05% Tween with the aid of a PW plate-washing device (Tecan Industries) and, before filling with fresh solution, all remaining liquid residues were removed by tapping on Scott®Natura paper towels (Hakle-Kimberly Deutschland GmbH). After blocking of non-specific binding sites, the plate was washed three times and filled with 50 μl/well of 1% BSA-PBS. 2×25 μl per reaction batch were transferred to the plate as double values and were carefully mixed thereon (total volume per well: 75 μl). From each filled series, a further 25 μl/well were then again titrated on the plate in a series of two-stage dilutions (final volume per well: 50 μl). The plates so filled were then stored for 2 hours at 4° C. under stationary conditions. Each plate was then washed six times as described above and filled with 80 μl/well of Eu^3+-streptavidin staining solution (europium-streptavidin stock solution diluted 1:10,000 with 1% BSA-PBS) and incubated for 30 minutes at room temperature (RT). After washing for a further eight times, 100 μl/well of fluorescence-activated solution (enhancer) were then added and the signal was measured by means of a Victor^2-multilabelcounter (Wallac Oy) at an excitation wavelength of 340 nm and an emission wavelength of 615 nm in time-resolving mode.
The following experiment was therefore carried out. One catalyst in a fixed concentration of 0.05 mM was introduced into each of a number of batches for loading HLA-DR1 with HA-biot. The same concentration of a second catalyst was then added to each batch. As controls, 1×1% DMSO was added and, as negative control, a reaction mixture was prepared with 2×1% DMSO. The reaction mixtures were then incubated for 40 minutes as already described and the load was measured in a sandwich ELISA.
The resulting load was then determined in an ELISA using biotinylated peptide (see FIG. 1).
The amount of peptide/MHC complexes formed within this time was then determined by means of an ELISA assay (capture antibody: anti-HLA-DR; detection: fluorescent-labelled streptavidin). The activities of the individual compounds were grouped on the basis of the dose/activity curves obtained thereby.

In the next series the target is T2, HLA-DR1 (DRB1*0101) (Homo sapiens, UniProt P01903+P01911, A100R/D57E/F55L/F60I/F76Y/I96L/L162R/M171V/P40L/Q125E/R42F/V115G/Y59C).
T2 construct: HLA-DR-expressing 721.221 cells; endogenous in cells; host or cells: 721.221 cells
Put plainly: HLA-DR1-restricted T-cell response after catalysed loading of 721.221 cells (EvHA/X5, hCII19.3 T-cells). The class given is cell-based. Particulars: for catalytic activity on HLA-DR1, dose-activity curves of T-cell stimulation: HA306-318 on 721.221 cells, EvHA/X5 T-cells. The text has this: In the present comparison test, the enhancement of the T-cell response by catalysis of the loading of HLA-expressing cells was investigated. […] Either HA306-318 (see also FIG. 3, left-hand panel) or CO260-273 (see also FIG. 3, right-hand panel) was used as peptide antigen. After the loading, the cells were washed and used to stimulate EvHA/X5 and hCII19.3 cells, respectively.
In order to investigate the catalysis of a HLA-DR1 (DRB1*0101)-restricted T-cell response by various catalytically active adamantyl compounds, dose-activity curves of the catalysis of a HLA-DR1 (DRB1*0101)-restricted T-cell response were prepared. The experiment was carried out analogously to Comparison Experiment 3.3, the peptide antigen HA306-318 being loaded onto 721.221 cells in order thereby to stimulate EvHA/X5 T-cells. […] Because the position of the dose-activity curves is evidently also determined by the side chain, a modulating activity can be attributed thereto.

The target in series [2] is T3, HLA-DR1 (DRB1*0101) on L57.23 cells (Homo sapiens, UniProt P01903+P01911, A100R/D57E/F55L/F60I/F76Y/I96L/L162R/M171V/P40L/Q125E/R42F/V115G/Y59C).
T3 construct: expressed in transfected cells; host or cells: L57.23 fibroblast cells
Put plainly: Loading of HLA-DR1 on the cell surface of fibroblast cells with biotinylated peptide, flow cytometry. The class given is cell-based. The conditions noted are these: 4 hours, 37° C., active at markedly less than a tenth of the pCP concentration. As to the method: (§1) The catalytic properties of found substances on the loading of MHC class II molecules located on cells was determined in cell loading experiments. To this end, from 50,000 to 100,000 cells in 50 μl of DMEM were mixed with 50 μl of 24 μM HA-biot. dissolved in DMEM and 50 μl of catalyst solution (different concentrations dissolved in DMEM with a maximum DMSO content of 3%) and incubated for 4 hours at 37° C. and 10% CO2. As controls, only 50 μl of peptide solution and 50 μl of DMEM were added to cells in several batches. At the end of the incubation time, the cells were centrifuged off for 5 minutes at 1300 rpm, and supernatant medium was removed. […] After removal of the supernatant, the cell pellets were again detached and taken up in 50 μl/well of streptavidin-phycoerythrin solution (SA-PE stock solution (1 mg/ml) diluted 1:200 with 2% FCS-PBS). Staining was carried out for 30 minutes at 4° C. with the exclusion of light, in order to avoid excessive decomposition of the fluorescent dyes. […] The cells were then analysed using a continuous-flow cytometer. […]
(In general: A flow cytometer gives signals particle by particle.)

For series [3], the target named is T4, HLA-DR4 (DRB1*0401) on L243.6 cells (Homo sapiens, UniProt P01903+P01911, A100K/A169T/F76Y/I96L/K127E/L162R/M171V/N62H/P40V/Q125Y/R42H/S133A/S149N/S66Y/V115G/V209L/W38E).
T4 construct: expressed in transfected cells; host or cells: L243.6 fibroblast cells
Put plainly: Loading of HLA-DR4 on the cell surface of fibroblast cells with biotinylated peptide, flow cytometry. It is filed as cell-based. Particulars: 4 hours, 37° C., active at markedly less than a tenth of the pCP concentration. As to the method:
as §1

Series [4] concerns the target T5, empty, soluble HLA-DR1 complexes (Homo sapiens, UniProt P01903+P01911, A100R/D57E/F55L/F60I/F76Y/I96L/L162R/M171V/P40L/Q125E/R42F/V115G/Y59C).
T5 construct: shortened α- and […]-chains without the cytoplasmatic and transmembrane portion of the MHC molecule; made in house; host or cells: S2 insect cells
Put plainly: High-throughput HLA-DR1 loading test of the substance library and validation of hits. It is filed as biochemical. Particulars: final concentration of 0.4 mM. As to the method: The compounds of formulae I, IA, II, III and IV1 to IV3 to be tested were supplied in 384-well plates in the form of a 160 mM starting library, dissolved in DMSO, from which an aliquot library had to be prepared. By manually removing 2 μl/well and diluting with 38 μl/well of DMSO, a 8 mM stock library was prepared, which was used for all further tests. In order to analyse the compounds of formulae I, IA, II, III and IV1 to IV3 that were present for their effect on MHC class II molecules, a high-throughput method based on a HLA-DR1 loading test was used. To this end, two 384-well Nunc-Maxisorp plates (ELISA plates) per library plate were coated overnight at 4° C. with 60 μl/well of monoclonal anti-HLA-DR antibody (L243 stock solution (1 mg/ml) diluted 1:500 in 100 mM NaHCO3). The plates were then washed three times by immersion in PBS-0.05% Tween solution and removal of air bubbles by tapping the plate against the wall of the washing vessel. Remaining washing solution was removed by beating the plates on paper towels, and 80 μl/well of 2% BSA-PBS were introduced. Non-specific binding was to be prevented by incubation at 37° C. for at least one hour. […] Excess staining solution was then removed by washing eight times with PBS-0.05% Tween, and 80 μl/well of fluorescence-activated solution (enhancer) were added manually by means of a pipette. […]

Series [5] deals with T6, soluble HLA-DR1 (DRB1*0101) (Homo sapiens, UniProt P01903+P01911, A100R/D57E/F55L/F60I/F76Y/I96L/L162R/M171V/P40L/Q125E/R42F/V115G/Y59C).
T6 construct: shortened α- and […]-chains without the cytoplasmatic and transmembrane portion of the MHC molecule; made in house; host or cells: S2 insect cells
Put plainly: MHC loading assay for identifying immunotoxic compounds (4 hours, ELISA). Particulars: biotinylated HA306-318. The class given is biochemical. (In general: ELISA stands for enzyme-linked immunosorbent assay.)

The subject of another series is MHC class II. Particulars: prior-art small molecules with H-donor properties; cited from earlier work.

Regarding `Oc1ccccc1-c1ccccc1` [2-HBP], in series [1] (0.05 mM + same concentration of the same catalyst), the “relative increase in the load, amount doubled” value is reported as “increases”. The “relative increase in the load” value in series [1] (0.05 mM catalyst + 1% DMSO, 40 minutes) was “about 10%”.

Regarding `COc1ccc2c(c1)OCC2=NO` [#3651, 6-methoxybenzofuran-3(2H)-one-oxime], the “catalytic activity on HLA-DR1, dose-activity curves of T-cell stimulation” value on HLA-DR1 (DRB1*0101) is given as “weaker but still exhibits higher activity than pCP”. Take `CC(C)(O)C1CCC2(C)C(C1)C2(Cl)Cl` (stereo not drawn) [#4230, 2-(7,7-dichloro-6-methyl-bicyclo[4.1.0]heptan-3-yl)-propan-2-ol]: at HLA-DR1 (DRB1*0101), the “catalytic activity on HLA-DR1, dose-activity curves of T-cell stimulation” value is “corresponds approximately to that of adamantylethanol”.

As to `NNC(=O)c1cc(C23CC4CC(CC(C4)C2)C3)n[nH]1` [AdCaPy, 3-(1-adamantyl)-5-carbohydrazide pyrazole], the “loading of cells with HA306-318, dose-activity curves compared with pCP” value in series [2] and in series [3] was “substantially more active than pCP” in each case. The “immune response of HLA-DR1-restricted T-cells” value on HLA-DR1 (DRB1*0101) (HA306-318 (EvHA/X5) or CO260-273 (hCII19.3) loaded onto 721.221 cells) is “markedly enhanced”. In the case of `Oc1cc(Cl)c(Cl)cc1O` [DCC, 1,2-dichloro-4,5-dihydroxybenzene, reference compound], in series [1] (accelerated loading of soluble HLA-DR1 with HA306-318, compared with pCP), the “catalytic activity of phenol/aniline compounds, comparison of dose-activity curves” value is reported as “slightly increased activity”. In addition, in series [4], the “load signal (threshold value of library analysis)” value was 15,000 counted events. With `OCC(O)CNc1ccccc1` (stereo not drawn) [III 36, 3-N-phenylaminopropanediol], in series [5], the “acceleration of the loading of MHC molecules with peptide ligands” value is on record as “able to accelerate the loading of MHC molecules with peptide ligands” and the “activity compared with pCP” value is “markedly lower than that of pCP”. For the compound `CCCO` [n-propanol], in the series on MHC class II, the “concentration required for use” value is on record as “over 200 mM”. Turning to `Oc1ccccc1` [phenol], the “concentration required for use” value with MHC class II is 30 mM. For “dichlorophenylhydroxyiminoacetamide [DPHIA]”, the “catalytic activity in the ELISA” value in series [1] is listed as “similarly good results as AdaEtOH”. The toxicity entry with L57.23 cells is “even lower toxic effects than AdaEtOH or 4-HBP”.

(Values after patent US20070280957A1, “Change of the Load State of Mhc Molecules” (priority 2004, published 2007).)
